Source: US6303630A, “Diarylsulfone non-nucleoside reverse transcriptase inhibitors of human immunodeficiency virus” (University of the Sciences in Philadelphia, priority 2000, dated 2001)

Experiments:
HIV-1 = assay: NCI in vitro anti-HIV drug screen: XTT-formazan assay, protection of T4 lymphocytes (CEM) from HIV-1 cytopathic effects; assay type: cell-based, human immunodeficiency virus (HIV-1); conditions: for EC50: 144 h, HIV-1 infected CEM cells, 6 days, XTT, approximate values, read-out: EC50 (50% effective concentration against HIV cytopathic effects); for inhibition at 20 µM / activity at 20 µM: dose 2.00 × 10^-5 Molar; for inhibition at 2 µM / activity at 2 µM: dose 2.00 × 10^-6 Molar; for inhibition at 0.2 µM / activity at 0.2 µM: dose 2.00 × 10^-7 Molar; for TI50 (IC/EC), Therapeutic Index: IC50/EC50
In short: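 CEM T4 lymphocytes with serial half-log10 compound dilutions were infected with HIV-1 and incubated 6 days at 37° in 5% CO2. Cell protection from cytolysis was quantified by XTT formazan absorbance, with microscopic confirmation, against uninfected drug-treated toxicity controls.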

[1] = tested on: T4 lymphocytes (CEM cell line); assay: Cell growth / toxicity control in uninfected T4 lymphocytes (CEM), XTT-formazan; assay type: cell-based; conditions: Homo sapiens, CCRF-CEM; for IC50: 144 h, uninfected CEM cells, 6 days, XTT, approximate values, read-out: IC50 (50% inhibitory concentration for cell growth); for activity at 20 µM: dose 2.00 × 10^-5 Molar; for activity at 2 µM: dose 2.00 × 10^-6 Molar; for activity at 0.2 µM: dose 2.00 × 10^-7 Molar
In short: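 Uninfected CEM T4 lymphocytes received compound in half-log10 dilutions (1:200 final dilution of DMSO solution) as toxicity control alongside HIV-1-infected cultures. After 6 days at 37° in 5% CO2, viability was quantified by XTT formazan absorbance plus microscopy.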

[2] = Human immunodeficiency virus 1, CCRF-CEM
[3] = Human immunodeficiency virus 1, CCRF-CEM, read-out: Percent of Protection
[4] = Human immunodeficiency virus 1, Lymphocyte, read-out: Percent of Control, Infected
[5] = read-out: Percent of Control, Uninfected

## CNc1c(Cl)cccc1S(=O)(=O)c1ccccc1[N+](=O)[O-] [Compound 78, 2-(2-nitrophenylsulfonyl)-6-chloro-N-methylaniline]
HIV-1; [2]
  EC50: 0.22 µM
HIV-1; [3]
  inhibition at 20 µM: 89.5%
  inhibition at 2 µM: 93.9%
  inhibition at 0.2 µM: 45.9%
HIV-1; Human immunodeficiency virus 1, CCRF-CEM, dose 2.00 × 10^-8 Molar, read-out: Percent of Protection
  inhibition at 0.02 µM: 8.88%
HIV-1; Human immunodeficiency virus 1, CCRF-CEM, dose 6.32 × 10^-6 Molar, read-out: Percent of Protection
  inhibition at 6.32 µM: 96%
HIV-1; Human immunodeficiency virus 1, CCRF-CEM, dose 6.33 × 10^-7 Molar, read-out: Percent of Protection
  inhibition at 0.633 µM: 100%
HIV-1; Human immunodeficiency virus 1, CCRF-CEM, dose 6.34 × 10^-8 Molar, read-out: Percent of Protection
  inhibition at 0.0634 µM: 12.2%
HIV-1; Human immunodeficiency virus 1, CCRF-CEM, dose 6.35 × 10^-9 Molar, read-out: Percent of Protection
  inhibition at 0.00635 µM: 2.69%
HIV-1; [4]
  activity at 20 µM: 89.8%
  activity at 2 µM: 94.1%
  activity at 0.2 µM: 47%
HIV-1; Human immunodeficiency virus 1, Lymphocyte, dose 2.00 × 10^-8 Molar, read-out: Percent of Control, Infected
  activity at 0.02 µM: 10.7%
HIV-1; Human immunodeficiency virus 1, Lymphocyte, dose 6.32 × 10^-6 Molar, read-out: Percent of Control, Infected
  activity at 6.32 µM: 96%
HIV-1; Human immunodeficiency virus 1, Lymphocyte, dose 6.33 × 10^-7 Molar, read-out: Percent of Control, Infected
  activity at 0.633 µM: 100%
HIV-1; Human immunodeficiency virus 1, Lymphocyte, dose 6.34 × 10^-8 Molar, read-out: Percent of Control, Infected
  activity at 0.0634 µM: 13.9%
HIV-1; Human immunodeficiency virus 1, Lymphocyte, dose 6.35 × 10^-9 Molar, read-out: Percent of Control, Infected
  activity at 0.00635 µM: 4.64%
HIV-1
  TI50 (IC/EC), Therapeutic Index: > 9.08 × 10^+1
[1]
  IC50: > 20 µM
[1]; [5]
  activity at 20 µM: 85.5%
  activity at 2 µM: 85.6%
  activity at 0.2 µM: 85.2%
[1]; dose 2.00 × 10^-8 Molar, read-out: Percent of Control, Uninfected
  activity at 0.02 µM: 92.2%
[1]; dose 6.32 × 10^-6 Molar, read-out: Percent of Control, Uninfected
  activity at 6.32 µM: 91.5%
[1]; dose 6.33 × 10^-7 Molar, read-out: Percent of Control, Uninfected
  activity at 0.633 µM: 86.4%
[1]; dose 6.34 × 10^-8 Molar, read-out: Percent of Control, Uninfected
  activity at 0.0634 µM: 87.4%
[1]; dose 6.35 × 10^-9 Molar, read-out: Percent of Control, Uninfected
  activity at 0.00635 µM: 88.5%

## CNc1ccc(S(=O)(=O)c2ccccc2[N+](=O)[O-])cc1C [Compound 79, 4-(2-nitrophenyisulfonyl)-N,2-dimethylaniline]
HIV-1; [2]
  EC50: 0.183 µM
HIV-1; Human immunodeficiency virus 1, CCRF-CEM, dose 2.00 × 10^-4 Molar, read-out: Percent of Protection
  inhibition at 200 µM: 10.7%
HIV-1; [3]
  inhibition at 20 µM: 78.6%
  inhibition at 2 µM: 97%
  inhibition at 0.2 µM: 53.9%
HIV-1; Human immunodeficiency virus 1, CCRF-CEM, dose 6.32 × 10^-5 Molar, read-out: Percent of Protection
  inhibition at 63.2 µM: 10.1%
HIV-1; Human immunodeficiency virus 1, CCRF-CEM, dose 6.33 × 10^-6 Molar, read-out: Percent of Protection
  inhibition at 6.33 µM: 103%
HIV-1; Human immunodeficiency virus 1, CCRF-CEM, dose 6.35 × 10^-8 Molar, read-out: Percent of Protection
  inhibition at 0.0635 µM: 7.87%
HIV-1; Human immunodeficiency virus 1, CCRF-CEM, read-out: Percent of Protection, dose 6.34 × 10^-7 Molar
  inhibition at 0.634 µM: 65%
HIV-1; Human immunodeficiency virus 1, Lymphocyte, dose 2.00 × 10^-4 Molar, read-out: Percent of Control, Infected
  activity at 200 µM: 15.2%
HIV-1; [4]
  activity at 20 µM: 79.7%
  activity at 2 µM: 97.2%
  activity at 0.2 µM: 56.2%
HIV-1; Human immunodeficiency virus 1, Lymphocyte, dose 6.32 × 10^-5 Molar, read-out: Percent of Control, Infected
  activity at 63.2 µM: 14.6%
HIV-1; Human immunodeficiency virus 1, Lymphocyte, dose 6.33 × 10^-6 Molar, read-out: Percent of Control, Infected
  activity at 6.33 µM: 103%
HIV-1; Human immunodeficiency virus 1, Lymphocyte, dose 6.34 × 10^-7 Molar, read-out: Percent of Control, Infected
  activity at 0.634 µM: 66.8%
HIV-1; Human immunodeficiency virus 1, Lymphocyte, dose 6.35 × 10^-8 Molar, read-out: Percent of Control, Infected
  activity at 0.0635 µM: 12.5%
HIV-1
  TI50 (IC/EC), Therapeutic Index: 1.79 × 10^-2
[1]
  IC50: 32.7 µM
[1]; dose 2.00 × 10^-4 Molar, read-out: Percent of Control, Uninfected
  activity at 200 µM: 11.9%
[1]; [5]
  activity at 20 µM: 76.9%
  activity at 2 µM: 94%
  activity at 0.2 µM: 97.1%
[1]; dose 6.32 × 10^-5 Molar, read-out: Percent of Control, Uninfected
  activity at 63.2 µM: 13.9%
[1]; dose 6.33 × 10^-6 Molar, read-out: Percent of Control, Uninfected
  activity at 6.33 µM: 98.2%
[1]; dose 6.34 × 10^-7 Molar, read-out: Percent of Control, Uninfected
  activity at 0.634 µM: 93%
[1]; dose 6.35 × 10^-8 Molar, read-out: Percent of Control, Uninfected
  activity at 0.0635 µM: 107%
